# Test results published in US6667387B1, “HCV core peptides” (priority 1992, dated 2003).
# Ends that are not written are not given here. * marks the point of attachment. Biotin = O=C1N[C@H]2[C@H](CS[C@H]2CCCCC(=O)*)N1
# Assays:
# [1] = tested on: antibodies in sera from HCV-seropositive donors; assay: ELISA with HCV antibody-positive sera (biotinylated peptides on streptavidin- or avidin-coated plates, unbiotinylated peptides coated directly); type: binding, human; settings: for PEPTIDE ELISA (O.D.): Table 12, biotinylated 20-mers
# Procedure, shortened: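 Read-out is OD at 450 nm after HRP goat anti-human Ig and TMB development, following 1 h at 37° C. with seropositive or negative sera diluted 1:100 (or 20-fold). Antigen was either unbiotinylated peptide adsorbed on plastic (pH 9.6 carbonate, 2–5 or 3 μg/ml) or biotinylated peptide at 1 μg/ml captured on streptavidin-coated wells, with casein blocking.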
# [2] = ELISA with seronegative / negative control sera (specificity); type: binding, human
# Procedure, shortened: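 Specificity readout is OD at 450 nm (HRP goat anti-human Ig, TMB/H2O2, sulfuric acid stop), with ≥0.250 counted positive. Seronegative donor sera (typically 1:100, 1 h, 37° C) were applied to casein-blocked wells coated with peptide directly or via streptavidin capture of biotinylated peptide.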
# [3] = Table 8, serum 8243 (HCV), Avidin
# [4] = Table 8, serum 8247 (HCV), Avidin
# [5] = Table 8, serum 8248 (HCV), Avidin
# [6] = Table 8, serum 8269 (HCV), Avidin
# [7] = Table 8, serum 8273 (HCV), Avidin
# [8] = Table 8, serum 8278 (HCV), Avidin
# [9] = Table 8, serum 8285 (HCV), Avidin
# [10] = Table 8, serum 8290 (HCV), Avidin
# [11] = Table 8, serum 8291 (HCV), Avidin
# [12] = Table 8, serum 1782 (blood donor), Avidin
# [13] = Table 8, serum 1784 (blood donor), Avidin
# [14] = Table 8, serum 1785 (blood donor), Avidin
# [15] = Table 8, serum 1794 (blood donor), Avidin
substance,measurement,setting,value
Bio-Gly-Gly-Gly-Ile-Trp-Gly-Cys-Ser-Gly-Lys-Leu-Ile-Cys-NH2 (Biotin-GGGIWGCSGKLIC-NH2; cysteine pairing not given here) [TM-HIV-1 Bio],optical density (450 nm),[1]; [3],0.108
same,optical density (450 nm),[1]; [4],0.042
same,optical density (450 nm),[1]; [5],0.043
same,optical density (450 nm),[1]; [6],0.053
same,optical density (450 nm),[1]; [7],0.053
same,optical density (450 nm),[1]; [8],0.046
same,optical density (450 nm),[1]; [9],0.134
same,optical density (450 nm),[1]; [10],0.045
same,optical density (450 nm),[1]; [11],0.048
same,optical density (450 nm),"[2]; Table 1, serum 180, seronegative donor",0.005
same,optical density (450 nm),"[2]; Table 1, serum 194, seronegative donor",0.000
same,optical density (450 nm),"[2]; Table 1, serum 195, seronegative donor",0.000
same,optical density (450 nm),"[2]; Table 1, serum 204, seronegative donor",0.001
same,optical density (450 nm),"[2]; Table 6, serum 1733, seronegative blood donor",0.000
same,optical density (450 nm),"[2]; Table 6, serum 1747, seronegative blood donor",0.000
same,optical density (450 nm),"[2]; Table 6, serum 1784, seronegative blood donor",0.000
same,optical density (450 nm),[2]; [12],0.052
same,optical density (450 nm),[2]; [13],0.044
same,optical density (450 nm),[2]; [14],0.046
same,optical density (450 nm),[2]; [15],0.124
Bio-Gly-Gly-Tyr-Asn-Lys-Arg-Lys-Arg-Ile-His-Ile-Gly-Pro-Gly-Arg-Ala-Phe-Tyr-Thr-Thr-Lys-Asn-Ile-Ile-Gly-NH2 (Biotin-GGYNKRKRIHIGPGRAFYTTKNIIG-NH2) [V3-mn Bio],optical density (450 nm),[1]; [3],0.114
same,optical density (450 nm),[1]; [4],0.052
same,optical density (450 nm),[1]; [5],0.048
same,optical density (450 nm),[1]; [6],0.056
same,optical density (450 nm),[1]; [7],0.056
same,optical density (450 nm),[1]; [8],0.053
same,optical density (450 nm),[1]; [9],0.143
same,optical density (450 nm),[1]; [10],0.050
same,optical density (450 nm),[1]; [11],0.053
same,optical density (450 nm),"[2]; Table 2, negative control",0.069
same,optical density (450 nm),"[2]; Table 3, Control, peptide bound to avidin",0.063
same,optical density (450 nm),"[2]; Table 3, Control, peptide bound to streptavidin",0.050
same,optical density (450 nm),[2]; [12],0.059
same,optical density (450 nm),[2]; [13],0.046
same,optical density (450 nm),[2]; [14],0.048
same,optical density (450 nm),[2]; [15],0.091
ETWKKPDYEPPVVHGCPLPP,optical density (450 nm),"[1]; Table 4G, serum 1, 20-fold dilution",2.691
same,optical density (450 nm),"[1]; Table 4G, serum 33, 20-fold dilution",1.813
same,optical density (450 nm),"[1]; Table 4G, serum 39, 20-fold dilution",0.213
same,optical density (450 nm),"[1]; Table 4G, serum 47, 20-fold dilution",2.611
same,optical density (450 nm),"[1]; Table 4G, serum 79, 20-fold dilution",2.105
same,optical density (450 nm),"[1]; Table 4G, serum 83, 20-fold dilution",1.232
same,optical density (450 nm),"[1]; Table 4G, serum 88, 20-fold dilution",1.858
same,optical density (450 nm),"[1]; Table 4G, serum 89, 20-fold dilution",2.309
same,optical density (450 nm),"[1]; Table 4G, serum 91, 20-fold dilution",1.132
same,optical density (450 nm),"[1]; Table 4G, serum 99, 20-fold dilution",1.526
same,optical density (450 nm),"[1]; Table 4G, serum 104, 20-fold dilution",1.998
same,optical density (450 nm),"[1]; Table 4G, serum 105, 20-fold dilution",2.053
same,optical density (450 nm),"[1]; Table 4G, serum 110, 20-fold dilution",2.065
same,optical density (450 nm),"[1]; Table 4G, serum 111, 20-fold dilution",1.542
same,optical density (450 nm),"[1]; Table 4G, serum 112, 20-fold dilution",1.408
same,optical density (450 nm),"[1]; Table 4G, serum 116, 20-fold dilution",1.978
same,optical density (450 nm),"[1]; Table 4G, serum 120, 20-fold dilution",2.031
same,optical density (450 nm),"[1]; Table 5, sample 8242 (positive), peptide concentration 0.01 micrograms per milliliter, listed as HCV peptide XVIII",1.185
same,optical density (450 nm),"[1]; Table 5, sample 8242 (positive), peptide concentration 0.03 micrograms per milliliter, listed as HCV peptide XVIII",1.188
same,optical density (450 nm),"[1]; Table 5, sample 8242 (positive), peptide concentration 0.1 micrograms per milliliter, listed as HCV peptide XVIII",0.946
same,optical density (450 nm),"[1]; Table 5, sample 8242 (positive), peptide concentration 0.3 micrograms per milliliter, listed as HCV peptide XVIII",0.873
same,optical density (450 nm),"[1]; Table 5, sample 8242 (positive), peptide concentration 1.0 micrograms per milliliter, listed as HCV peptide XVIII",0.839
same,optical density (450 nm),"[1]; Table 5, sample 8242 (positive), peptide concentration 3.0 micrograms per milliliter, listed as HCV peptide XVIII",0.749
same,optical density (450 nm),"[1]; Table 5, sample 8243 (positive), peptide concentration 0.01 micrograms per milliliter, listed as HCV peptide XVIII",0.462
same,optical density (450 nm),"[1]; Table 5, sample 8243 (positive), peptide concentration 0.03 micrograms per milliliter, listed as HCV peptide XVIII",0.611
same,optical density (450 nm),"[1]; Table 5, sample 8243 (positive), peptide concentration 0.1 micrograms per milliliter, listed as HCV peptide XVIII",0.661
same,optical density (450 nm),"[1]; Table 5, sample 8243 (positive), peptide concentration 0.3 micrograms per milliliter, listed as HCV peptide XVIII",0.629
same,optical density (450 nm),"[1]; Table 5, sample 8243 (positive), peptide concentration 1.0 micrograms per milliliter, listed as HCV peptide XVIII",0.627
same,optical density (450 nm),"[1]; Table 5, sample 8243 (positive), peptide concentration 3.0 micrograms per milliliter, listed as HCV peptide XVIII",0.671
same,optical density (450 nm),"[1]; Table 5, sample 8318 (positive), peptide concentration 0.01 micrograms per milliliter, listed as HCV peptide XVIII",1.711
same,optical density (450 nm),"[1]; Table 5, sample 8318 (positive), peptide concentration 0.03 micrograms per milliliter, listed as HCV peptide XVIII",2.308
same,optical density (450 nm),"[1]; Table 5, sample 8318 (positive), peptide concentration 0.1 micrograms per milliliter, listed as HCV peptide XVIII",2.409
same,optical density (450 nm),"[1]; Table 5, sample 8318 (positive), peptide concentration 0.3 micrograms per milliliter, listed as HCV peptide XVIII",2.392
same,optical density (450 nm),"[1]; Table 5, sample 8318 (positive), peptide concentration 1.0 micrograms per milliliter, listed as HCV peptide XVIII",2.396
same,optical density (450 nm),"[1]; Table 5, sample 8318 (positive), peptide concentration 3.0 micrograms per milliliter, listed as HCV peptide XVIII",2.391
same,optical density (450 nm),"[1]; Table 5, sample 8326 (positive), peptide concentration 0.01 micrograms per milliliter, listed as HCV peptide XVIII",1.848
same,optical density (450 nm),"[1]; Table 5, sample 8326 (positive), peptide concentration 0.03 micrograms per milliliter, listed as HCV peptide XVIII",2.219
same,optical density (450 nm),"[1]; Table 5, sample 8326 (positive), peptide concentration 0.1 micrograms per milliliter, listed as HCV peptide XVIII",2.331
same,optical density (450 nm),"[1]; Table 5, sample 8326 (positive), peptide concentration 0.3 micrograms per milliliter, listed as HCV peptide XVIII",2.331
same,optical density (450 nm),"[1]; Table 5, sample 8326 (positive), peptide concentration 1.0 micrograms per milliliter, listed as HCV peptide XVIII",2.331
same,optical density (450 nm),"[1]; Table 5, sample 8326 (positive), peptide concentration 3.0 micrograms per milliliter, listed as HCV peptide XVIII",2.315
same,optical density (450 nm),[1]; [3],0.118
same,optical density (450 nm),[1]; [4],0.046
same,optical density (450 nm),[1]; [5],0.905
same,optical density (450 nm),[1]; [6],1.513
same,optical density (450 nm),[1]; [7],0.052
same,optical density (450 nm),[1]; [8],0.052
same,optical density (450 nm),[1]; [9],0.146
same,optical density (450 nm),[1]; [10],2.323
same,optical density (450 nm),[1]; [11],0.049
same,PEPTIDE ELISA (O.D.),[1]; serum 0843,0.127
same,PEPTIDE ELISA (O.D.),[1]; serum 8240,1.511
same,PEPTIDE ELISA (O.D.),[1]; serum 8241,0.273
same,PEPTIDE ELISA (O.D.),[1]; serum 8242,2.453
same,PEPTIDE ELISA (O.D.),[1]; serum 8332,2.290
same,PEPTIDE ELISA (O.D.),[1]; serum 8339,2.757
same,PEPTIDE ELISA (O.D.),[1]; serum 8350,0.182
same,PEPTIDE ELISA (O.D.),[1]; serum 8377,1.378
same,PEPTIDE ELISA (O.D.),[1]; serum 8378,2.337
same,PEPTIDE ELISA (O.D.),[1]; serum 8388,2.358
same,optical density (450 nm),"[2]; Table 4G, negative serum",0.001
same,optical density (450 nm),"[2]; Table 5, sample 1747 (negative), peptide concentration 0.01 micrograms per milliliter, listed as HCV peptide XVIII",0.042
same,optical density (450 nm),"[2]; Table 5, sample 1747 (negative), peptide concentration 0.03 micrograms per milliliter, listed as HCV peptide XVIII",0.058
same,optical density (450 nm),"[2]; Table 5, sample 1747 (negative), peptide concentration 0.1 micrograms per milliliter, listed as HCV peptide XVIII",0.044
same,optical density (450 nm),"[2]; Table 5, sample 1747 (negative), peptide concentration 0.3 micrograms per milliliter, listed as HCV peptide XVIII",0.061
same,optical density (450 nm),"[2]; Table 5, sample 1747 (negative), peptide concentration 1.0 micrograms per milliliter, listed as HCV peptide XVIII",0.042
same,optical density (450 nm),"[2]; Table 5, sample 1747 (negative), peptide concentration 3.0 micrograms per milliliter, listed as HCV peptide XVIII",0.047
same,optical density (450 nm),"[2]; Table 5, sample 1781 (negative), peptide concentration 0.01 micrograms per milliliter, listed as HCV peptide XVIII",0.045
same,optical density (450 nm),"[2]; Table 5, sample 1781 (negative), peptide concentration 0.03 micrograms per milliliter",0.051
same,optical density (450 nm),"[2]; Table 5, sample 1781 (negative), peptide concentration 0.1 micrograms per milliliter, listed as HCV peptide XVIII",0.048
same,optical density (450 nm),"[2]; Table 5, sample 1781 (negative), peptide concentration 0.3 micrograms per milliliter, listed as HCV peptide XVIII",0.048
same,optical density (450 nm),"[2]; Table 5, sample 1781 (negative), peptide concentration 1.0 micrograms per milliliter, listed as HCV peptide XVIII",0.048
same,optical density (450 nm),"[2]; Table 5, sample 1781 (negative), peptide concentration 3.0 micrograms per milliliter, listed as HCV peptide XVIII",0.053
same,optical density (450 nm),[2]; [12],0.053
same,optical density (450 nm),[2]; [13],0.047
same,optical density (450 nm),[2]; [14],0.047
same,optical density (450 nm),[2]; [15],0.104
